Reference: US20040096951A1, “Crystal structures of retaining glycosytransferases” (priority 2003, published 2004)
Structures can show the parent of a compound that is named as a salt.

How the values were obtained:
LgtC [1] = target: T1, LgtC (Neisseria meningitidis, UniProt Q93EK7, Q189A); assay: biochemical; assay type: biochemical; conditions: Q189A mutant; added reagent
T1 construct: a deletion mutant of LgtC missing the C-terminal 25 residues; made in house; host or cells: E. coli (AD202)
Protocol: (§1) Synthesis of UDP-2Fgal was achieved essentially as described previously (ref. 19). Syntheses of 4′-deoxylactose, 6′-deoxylactose and galactosyl β-1,6-lactose will be described elsewhere. Kinetic studies were performed at 30° C. in 20 mM HEPES, pH 7.5 containing 0.1% bovine serum albumin, 50 mM KCl, 5 mM MnCl2 and 5 mM DTT. […] The change in absorbance was measured by means of a UNICAM 8700 UV-Vis spectrophotometer equipped with a circulating water bath. Kinetic parameters were calculated by direct fit of the initial rates to the respective equations using Grafit version 3.0 (ref.43).

[2] = tested on: two other galactosyltransferases; conditions: shown previously; cited from earlier work
LgtC [3] = target: T2, LgtC (Neisseria meningitidis, UniProt Q93EK7); assay: biochemical; assay type: biochemical; conditions: for Function as a substrate for LgtC (transfer): galactosyl β-1,6-lactose incubated in the presence of UDP plus the usual buffer components
T2 construct: a deletion mutant of LgtC missing the C-terminal 25 residues; made in house; host or cells: E. coli (AD202)
T2 sequence (Q93EK7 entry or part of it): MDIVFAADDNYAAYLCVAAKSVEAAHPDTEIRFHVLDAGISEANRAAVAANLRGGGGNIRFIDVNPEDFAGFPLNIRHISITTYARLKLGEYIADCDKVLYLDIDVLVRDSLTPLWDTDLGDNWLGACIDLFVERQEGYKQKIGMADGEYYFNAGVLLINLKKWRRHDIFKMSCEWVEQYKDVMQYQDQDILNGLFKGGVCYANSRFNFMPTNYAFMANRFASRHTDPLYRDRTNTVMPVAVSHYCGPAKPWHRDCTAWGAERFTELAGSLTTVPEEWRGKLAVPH
Protocol: as §1

[4] = tested on: OC[C@H]1O[C@@H](O[C@H]2[C@H](O)[C@@H](O)C(O)O[C@@H]2CO)[C@H](O)[C@@H](O)[C@H]1O; assay: purified protein, by the assay type; assay type: biochemical, Neisseria meningitidis; conditions: other: LgtC wild type; acceptor substrate; pH 7.5; 30.0 °C

T1 sequence (Q93EK7 1-286 Q189A): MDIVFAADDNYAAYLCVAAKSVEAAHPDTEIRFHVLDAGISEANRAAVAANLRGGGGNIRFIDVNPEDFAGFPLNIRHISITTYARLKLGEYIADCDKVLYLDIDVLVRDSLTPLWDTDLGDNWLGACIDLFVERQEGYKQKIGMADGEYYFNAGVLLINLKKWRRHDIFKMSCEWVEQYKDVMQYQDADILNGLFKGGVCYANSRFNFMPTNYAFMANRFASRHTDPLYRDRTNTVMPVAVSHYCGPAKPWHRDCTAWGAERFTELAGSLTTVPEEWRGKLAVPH

Row | Molecule | Rescue of activity of the Q189A mutant by added small molecules (rate increase) (LgtC [1]) | Function as a substrate for LgtC (transfer) (LgtC [3]; LgtC) | also measured
1 | CC(N)=O [acetamide] | No rate increases were observed | – | –
2 | CC(=O)O [acetate] | No rate increases were observed | – | –
3 | O=c1ccn([C@@H]2O[C@H](COP(=O)(O)OP(=O)(O)O[C@H]3O[C@H](CO)[C@H](O)[C@H](O)[C@H]3F)[C@@H](O)[C@H]2O)c(=O)[nH]1 [UDP-2FGal, Uridine 5′-diphospho-(2-deoxy-2-fluoro)-α-D-galactopyranose, di-ammonium Salt, reference compound] | – | no transfer occurs | Inhibition of other galactosyltransferases [2]: shown to inhibit; Ki (LgtC [3]): 0.002 mM
4 | LgtC (Neisseria meningitidis) | – | – | Km [4]: 20 mM
5 | NC=O [formamide] | No rate increases were observed | – | –
6 | C[C@H]1OC(O)[C@H](O)[C@@H](O)[C@@H]1O[C@@H]1O[C@H](CO)[C@H](O)[C@H](O)[C@H]1O (some centres unmarked) [6-deoxylactose] | – | shown not to function as a substrate | Action as an inhibitor of LgtC (LgtC [3]; LgtC): neither did it act as an inhibitor
7 | O=CO [formate] | No rate increases were observed | – | –
8 | galactosyl β-1,6-lactose | – | does not function as a substrate | –
9 | OC[C@@H]1C[C@H](O)[C@@H](O)[C@H](O[C@H]2[C@H](O)[C@@H](O)C(O)O[C@@H]2CO)O1 (some centres unmarked) [4-deoxylactose, 4′-Deoxylactose] | – | cannot function as a substrate | Ki (LgtC [3]): 16 mM
10 | [N-]=[N+]=[N-] [azide] | No rate increases were observed | – | –
